Measurements as given in US12054498B2, “Heteroaromatic macrocyclic ether chemotherapeutic agents” (Nuvalent, Inc., priority 2020, dated 2024).

Experiments:
ALK L1196M/G1202R = target: T1, ALK L1196M/G1202R (Homo sapiens, UniProt Q9UM73, G1202R/L1196M); assay: Biochemical kinase assay, ALK L1196M/G1202R kinase domain; details: apparent inhibitory constant, Morrison equation; ATP 2 mM in substrate solution; read-out: ALK-L1196M-G1202R Ki^app
T1 construct: purchased SignalChem A19-12NG
Experimental: (§1) First, 250 nL of compound dissolved in DMSO (100-fold of the desired concentration) was dispensed into a 384-well plate. A 12.5 μL substrate solution containing ATP (2 mM) and fluorogenic phosphorylation substrate AQT0101 (26 μM for ALK and ROS1, AssayQuant) or AQT0104 (26 μM for TRKA, AssayQuant) in buffer (50 mM HEPES pH 7.5, 0.01% Brij-35, 0.5 mM EGTA, 10 mM MgCl2) was added and mixed thoroughly. Then, a 12.5 μL kinase solution containing ALK-wt (1.5 nM, Carna, 08-518), ALK ALK L1196M/G1202R (3 nM, SignalChem, A19-12NG), ROS1-wt (0.6 nM, Carna, 08-163), ROS1-G2032R (0.5 nM, SignalChem, R14-12BG), or TRKA-wt (1 nM, BPS Bio, 40280) kinase domains in buffer (50 nM HEPES pH 7.5, 0.01% Brij-35, 2% glycerol, 0.4 mg/mL BSA, 0.5 mM EGTA, and 10 mM MgCl2) was added and mixed thoroughly. The plate was sealed and read by SpectraMax Paradigm at λ=485 nm every 2 minutes for 120 minutes at 30° C. Initial rates of reaction (v) were calculated from the change in fluorescence intensity over time during the initial, linear portion of the reaction. Finally, apparent inhibitory constants (Ki^app) were determined from regression of v and I (inhibitor concentration) to Morrison Equation (E=enzyme concentration): […]

[1] = target: T2, Ba/F3 cells EML4-ALK L1196M/G1202R (variant 1) (Homo sapiens, UniProt Q9UM73, G1202R/L1196M); assay: Ba/F3 cell proliferation assay, EML4-ALK L1196M/G1202R (variant 1); assay type: cell-based; details: 72 hours, CellTiter-Glo
T2 construct: echinoderm microtubule-associated protein-like 4 (EML4) gene and the ALK tyrosine kinase domain; host or cells: Ba/F3 (RIKEN), retroviral pMSCV-puro; the other entry of the earlier key: EML4 (Q9HC35, Echinoderm microtubule-associated protein-like 4)
Text: (§2) Genes encoding CD74-ROS1 wild-type (wt), CD74-ROS1 G2032R, CD74-ROS1 S1986F, CD74-ROS1 L2026M, CD74-ROS1 D2033N, EML4-ALK wt (variant 1), EML4-ALK G1202R (variant 1), EML4-ALK L1196M/G1202R (variant 1), EML4-ALK G1202R/G1269A (variant 1), EML4-ALK G1202R/L1198F (variant 1), and TPM3-TRKA were synthesized at GeneRay, cloned into the retroviral construct pMSCV-puro (Biovector), and packaged into retroviral particles. The virus was used to infect Ba/F3 cells (RIKEN) at multiplicity of infection=1 for 1 day. Infected cells were rescued in media (RPMI-1640 with 10% fetal bovine serum and 1% streptomycin and penicillin) supplemented with mouse IL-3 (10 ng/mL) for 2 days, and stable cell lines were selected by IL-3 withdrawal and puromycin (0.8 μg/mL) for 7 days. Monoclones were selected by single-cell dilution in IL-3-free medium containing puromycin (0.8 μg/mL). Transformation of desired genes was confirmed by Sanger sequencing and western blot using the following antibodies: ROS1 (CST #3287), ALK (CST #3633), and pan-TRK (Abcam #76291).
(§3) Cell Proliferation Assay Stable cells were plated at 1,000 cells/well (40 μL) in a 384-well plate for 1 day.
(§4) Test compounds (40 nL) were then added in a 3-fold dilution series using the TECAN EVO200 liquid handler and incubated for 72 hours. Plates were equilibrated at room temperature for 15 minutes followed by addition of 40 μL CellTiter-Glo reagent (Promega).
(§5) Luminescence was measured on a plate reader. Half-maximal inhibitory concentration (IC50) was calculated from percent inhibition and inhibitor concentration using four-parameter logistic regression. […] (nd=not determined).

[2] = system: TPM3-NTRK1-wt IC50 / primary target IC50 (e.g. CD74-ROS1-wt); assay: TRKA selectivity in Ba/F3 cells (TRKA potency divided by primary target potency); assay type: cell-based; details: for TPM3-NTRK1-wt/EML4-ALK-L1196M-G1202R selectivity ratio: TRKA potency / EML4-ALK-L1196M-G1202R potency; for TPM3-NTRK1-wt/CD74-ROS1-G2032R selectivity ratio: TRKA potency / CD74-ROS1-G2032R potency
Experimental: TRKA selectivity was calculated by dividing a compound's TRKA potency by its primary target potency (e.g. TPM3-NTRK1-wt IC50/CD74-ROS1-wt IC50). Compound selectivity can be interpreted by binning ratio values: bin A for very high selectivity, ratio >30-fold; bin B for high selectivity, ratio >10-fold; bin C for moderate selectivity, ratio ≥1; and bin D for low selectivity, ratio <1. […] (nd=not determined).

ALK-wt = target: T3, ALK-wt (Homo sapiens, UniProt Q9UM73); assay: Biochemical kinase assay, ALK-wt kinase domain; details: apparent inhibitory constant, Morrison equation; ATP 2 mM in substrate solution; read-out: ALK-wt Ki^app
T3 construct: purchased Carna 08-518
Experimental: as §1

TRKA-wt = target: T4, TRKA-wt (Homo sapiens, UniProt P04629); assay: Biochemical kinase assay, TRKA-wt kinase domain; details: apparent inhibitory constant, Morrison equation; ATP 2 mM in substrate solution; read-out: TRKA-wt Ki^app
T4 construct: or TRKA-wt (1 nM, BPS Bio, 40280) kinase domains in buffer; purchased BPS Bio 40280
Experimental: as §1

ROS1-wt = target: T5, ROS1-wt (Homo sapiens, UniProt P08922); assay: Biochemical kinase assay, ROS1-wt kinase domain; details: apparent inhibitory constant, Morrison equation; ATP 2 mM in substrate solution; read-out: ROS1-wt Ki^app
T5 construct: purchased Carna 08-163
Experimental: as §1, with “Then, a 12.5 μL kinase solution containing ALK-wt (1.5 nM, Carna, 08-518), ALK ALK L1196M/G1202R (3 nM, SignalChem, A19-12NG), ROS1-wt (0.6 nM, Carna, 08-163), ROS1-G2032R (0.5 nM, SignalChem, R14-12BG), or TRKA-wt (1 nM, BPS Bio, 40280) kinase domains in buffer (50 nM HEPES pH 7.5, 0.01% Brij-35, 2% glycerol, 0.4 mg/mL BSA, 0.5 mM EGTA, and 10 mM MgCl2) was added and mixed thoroughly.” left out

Ba/F3 cells TPM3-TRKA = target: T6, Ba/F3 cells TPM3-TRKA (Homo sapiens, UniProt P04629); assay: Ba/F3 cell proliferation assay, TPM3-TRKA; assay type: cell-based; details: 72 hours, CellTiter-Glo, read-out: TPM3-NTRK1-wt IC50
T6 construct: host or cells: Ba/F3 (RIKEN), retroviral pMSCV-puro; the other entry of the earlier key: TPM3 (P06753, Tropomyosin alpha-3 chain)
Text: as §2, §3, §4, §5

ROS1-G2032R = target: T7, ROS1-G2032R (Homo sapiens, UniProt P08922, G2032R); assay: Biochemical kinase assay, ROS1-G2032R kinase domain; details: apparent inhibitory constant, Morrison equation; ATP 2 mM in substrate solution; read-out: ROS1-G2032R Ki^app
T7 construct: purchased SignalChem R14-12BG
Experimental: as §1, with “Then, a 12.5 μL kinase solution containing ALK-wt (1.5 nM, Carna, 08-518), ALK ALK L1196M/G1202R (3 nM, SignalChem, A19-12NG), ROS1-wt (0.6 nM, Carna, 08-163), ROS1-G2032R (0.5 nM, SignalChem, R14-12BG), or TRKA-wt (1 nM, BPS Bio, 40280) kinase domains in buffer (50 nM HEPES pH 7.5, 0.01% Brij-35, 2% glycerol, 0.4 mg/mL BSA, 0.5 mM EGTA, and 10 mM MgCl2) was added and mixed thoroughly.” left out

[3] = target: T8, Ba/F3 cells CD74-ROS1 G2032R (Homo sapiens, UniProt P08922, G2032R); assay: Ba/F3 cell proliferation assay, CD74-ROS1 G2032R; assay type: cell-based; details: 72 hours, CellTiter-Glo
T8 construct: fusion of the C-terminus of ROS1 with the N-terminus of various partner proteins; host or cells: Ba/F3 (RIKEN), retroviral pMSCV-puro; the other entry of the earlier key: CD74 (P04233, HLA class II histocompatibility antigen gamma chain)
Experimental: The virus was used to infect Ba/F3 cells (RIKEN) at multiplicity of infection=1 for 1 day. Infected cells were rescued in media (RPMI-1640 with 10% fetal bovine serum and 1% streptomycin and penicillin) supplemented with mouse IL-3 (10 ng/mL) for 2 days, and stable cell lines were selected by IL-3 withdrawal and puromycin (0.8 μg/mL) for 7 days. Monoclones were selected by single-cell dilution in IL-3-free medium containing puromycin (0.8 μg/mL).
as §3, §4, §5

T6 sequence (P04629 510-796 limits assumed): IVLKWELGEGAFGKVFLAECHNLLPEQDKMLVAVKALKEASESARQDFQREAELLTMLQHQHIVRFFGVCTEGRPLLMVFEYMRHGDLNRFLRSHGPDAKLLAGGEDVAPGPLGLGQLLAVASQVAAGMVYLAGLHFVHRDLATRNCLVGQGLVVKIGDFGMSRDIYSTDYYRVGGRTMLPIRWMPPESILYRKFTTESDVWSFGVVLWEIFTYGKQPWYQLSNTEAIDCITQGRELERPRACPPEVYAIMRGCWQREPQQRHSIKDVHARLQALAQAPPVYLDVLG
T5 sequence (P08922 1945-2222 limits assumed): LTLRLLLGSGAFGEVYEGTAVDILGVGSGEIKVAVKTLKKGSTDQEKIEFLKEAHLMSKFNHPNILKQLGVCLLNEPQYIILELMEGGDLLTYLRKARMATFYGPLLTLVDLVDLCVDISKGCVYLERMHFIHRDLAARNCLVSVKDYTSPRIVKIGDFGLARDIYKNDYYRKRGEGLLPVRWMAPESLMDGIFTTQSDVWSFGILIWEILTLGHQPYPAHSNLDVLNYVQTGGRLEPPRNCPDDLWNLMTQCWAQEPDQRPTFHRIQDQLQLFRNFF
T4 sequence (P04629 510-781 limits assumed): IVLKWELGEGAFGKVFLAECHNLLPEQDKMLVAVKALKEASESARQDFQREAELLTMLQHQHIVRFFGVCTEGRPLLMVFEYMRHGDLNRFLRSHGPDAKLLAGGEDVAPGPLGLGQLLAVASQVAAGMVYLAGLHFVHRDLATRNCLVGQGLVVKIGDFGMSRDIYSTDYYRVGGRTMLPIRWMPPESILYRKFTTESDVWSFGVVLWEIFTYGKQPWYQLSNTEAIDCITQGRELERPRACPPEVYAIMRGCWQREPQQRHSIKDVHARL
T3 sequence (Q9UM73 1116-1392 limits assumed): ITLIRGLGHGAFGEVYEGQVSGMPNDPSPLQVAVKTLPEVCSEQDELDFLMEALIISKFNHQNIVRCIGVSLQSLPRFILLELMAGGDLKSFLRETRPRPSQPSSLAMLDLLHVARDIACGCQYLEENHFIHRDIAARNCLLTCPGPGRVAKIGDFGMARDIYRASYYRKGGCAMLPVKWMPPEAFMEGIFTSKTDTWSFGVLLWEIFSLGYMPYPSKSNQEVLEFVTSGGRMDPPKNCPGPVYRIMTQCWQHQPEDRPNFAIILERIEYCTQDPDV
T7 sequence (P08922 1945-2222 G2032R limits assumed): as the sequence (P08922 1945-2222 limits assumed) above, with G88R counted along it
T2 sequence (Q9UM73 with tags, fused parts or gaps L1196M/G1202R): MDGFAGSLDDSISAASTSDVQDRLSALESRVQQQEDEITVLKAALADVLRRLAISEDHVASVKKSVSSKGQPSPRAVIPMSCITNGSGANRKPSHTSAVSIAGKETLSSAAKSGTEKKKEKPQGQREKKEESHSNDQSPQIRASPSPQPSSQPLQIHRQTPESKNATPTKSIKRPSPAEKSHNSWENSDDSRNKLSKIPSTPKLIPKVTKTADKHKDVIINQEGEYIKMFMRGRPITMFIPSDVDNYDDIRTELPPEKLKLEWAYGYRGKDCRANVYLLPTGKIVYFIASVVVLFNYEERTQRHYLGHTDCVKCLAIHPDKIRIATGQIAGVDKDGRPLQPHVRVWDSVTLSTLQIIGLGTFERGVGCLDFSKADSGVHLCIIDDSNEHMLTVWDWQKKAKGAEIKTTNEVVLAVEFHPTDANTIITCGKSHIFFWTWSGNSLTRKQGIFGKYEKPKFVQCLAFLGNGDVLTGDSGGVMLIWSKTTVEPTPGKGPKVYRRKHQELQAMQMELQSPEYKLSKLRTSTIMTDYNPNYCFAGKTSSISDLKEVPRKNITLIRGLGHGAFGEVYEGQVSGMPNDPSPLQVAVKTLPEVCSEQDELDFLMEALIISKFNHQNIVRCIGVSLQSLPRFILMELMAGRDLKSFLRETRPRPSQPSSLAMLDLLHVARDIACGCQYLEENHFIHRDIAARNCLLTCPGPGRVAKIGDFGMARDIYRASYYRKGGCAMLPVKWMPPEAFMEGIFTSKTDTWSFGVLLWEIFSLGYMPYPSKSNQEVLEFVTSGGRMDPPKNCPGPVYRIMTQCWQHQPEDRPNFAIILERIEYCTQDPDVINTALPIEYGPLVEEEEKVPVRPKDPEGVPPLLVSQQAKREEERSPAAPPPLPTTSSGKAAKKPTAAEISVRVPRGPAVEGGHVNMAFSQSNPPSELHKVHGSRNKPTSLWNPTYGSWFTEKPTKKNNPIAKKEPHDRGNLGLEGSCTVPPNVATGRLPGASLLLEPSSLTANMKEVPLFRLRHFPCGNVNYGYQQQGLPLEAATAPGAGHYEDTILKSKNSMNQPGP
T1 sequence (Q9UM73 1116-1392 L1196M/G1202R limits assumed): as the sequence (Q9UM73 1116-1392 limits assumed) above, with L81M, G87R counted along it
T8 sequence (P08922 1883-2347 G2032R limits assumed): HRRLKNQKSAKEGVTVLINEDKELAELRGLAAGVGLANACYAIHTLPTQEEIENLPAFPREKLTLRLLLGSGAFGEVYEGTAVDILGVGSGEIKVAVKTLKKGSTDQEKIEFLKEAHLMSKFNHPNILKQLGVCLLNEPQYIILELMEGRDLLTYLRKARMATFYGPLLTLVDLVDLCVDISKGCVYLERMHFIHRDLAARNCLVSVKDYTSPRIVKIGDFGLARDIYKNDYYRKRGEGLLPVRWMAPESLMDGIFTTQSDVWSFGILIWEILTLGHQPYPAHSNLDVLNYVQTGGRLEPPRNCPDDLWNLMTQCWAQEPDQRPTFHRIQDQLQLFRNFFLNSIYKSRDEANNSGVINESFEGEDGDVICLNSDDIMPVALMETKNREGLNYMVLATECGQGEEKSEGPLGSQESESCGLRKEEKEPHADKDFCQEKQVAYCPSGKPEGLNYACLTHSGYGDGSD

Ki (ALK L1196M/G1202R) [nM]	IC50 [1] [nM]	Ki (ALK-wt) [nM]	Ki (TRKA-wt) [nM]	Ki (ROS1-wt) [nM]	IC50 (Ba/F3 cells TPM3-TRKA) [nM]	Ki (ROS1-G2032R) [nM]	IC50 [3] [nM]	SMILES	TPM3-NTRK1-wt/EML4-ALK-L1196M-G1202R selectivity ratio [2]	TPM3-NTRK1-wt/CD74-ROS1-G2032R selectivity ratio [2]
< 50	50 to 500	< 50	> 500	< 50	> 500	< 50		Cc1nn(CC2CC2)c2c1Cc1nn(C)nc1-c1ccc(F)cc1[C@@H](CO)Oc1cc-2cnc1N [Example 96, [(19S)-22-amino-3-(cyclopropylmethyl)-16-fluoro-5,10-hexaazapentacyclo[19.3.1.0^2,^6.0^8,^12.0^13,^18]pentacosa-1(24),2(6),4,8,11,13,15,17,21(25),22-decaen-19-yl]methanol]	A (bin A for very high selectivity, ratio >30-fold)	
50 to 500	> 500	< 50	> 500	< 50	> 500	50 to 500	0.1 to 50	CCn1ncc2c1-c1cnc(N)c(c1)O[C@H](C)c1cc(F)ccc1-c1cnnn1C2 [Example 2, (19R)-3-ethyl-16-fluoro-19-methyl-20-oxa-3,4,8,9,10,23-hexaazapentacyclo[19.3.1.0^2,^6.0^8,^12.0^13,^18]pentacosa-1(24),2(6),4,9,11,13,15,17,21 (25),22-decaen-22-amine]	C (bin C for moderate selectivity, ratio ≥1)	A (bin A for very high selectivity, ratio >30-fold)
< 50	0.1 to 50	< 50	50 to 500	< 50	50 to 500	< 50	0.1 to 50	CCn1ncc2c1-c1cnc(N)c(c1)O[C@H](C)c1cc(F)ccc1-c1nccnc1C2 [Example 36, (20R)-3-ethyl-17-fluoro-20-methyl-21-oxa-3,4,9,12,24-pentaazapentacyclo[20.3.1.0^2,^6.0^8,^13.0^14,^19]hexacosa-1(25),2(6),4,8(13),9,11,14,16,18,22(26),23-undecaen-23-amine]	B (bin B for high selectivity, ratio >10-fold)	A (bin A for very high selectivity, ratio >30-fold)
